Experimental data: article PMC1851987, “Identification of the Endogenous Key Substrates of the Human Organic Cation Transporter OCT2 and Their Implication in Function of Dopaminergic Neurons” (PLoS ONE, 2007)

Assays:
OCT2 (wild-type 400R) [1] = experiment: MTT reduction cell viability assay, OCT2 (wild-type 400R) transfected HEK-293 cells; type: cell-based, human; details: human, HEK-293 cells transfected with OCT2 (wild-type 400R); 48 h exposure, no pretreatment; read-out: EC50 (95% confidence interval), cell viability
Method: (§1) Cell viability was assessed in HEK-293 cells, human dopaminergic neuroblastoma cells (SH-SY5Y) and human glioblastoma cells (HTZ-146) by the MTT test as described.[22] […] For indication of metabolic activity, cells were treated with MTT reagent (15 µl of 1 mg/ml stock solution per well) for 1 h, and after drying of culture plates for 1 h at 37°C, the resulting formazan dye was extracted with isopropanol/HCl (100 µl 0.04 mol/l per well) and absorbance was determined spectrophotometrically at 568 nm.

OCT1 = experiment: MTT reduction cell viability assay, OCT1-transfected HEK-293 cells; type: cell-based; details: human, HEK-293 cells transfected with OCT1; 48 h exposure; read-out: EC50 (95% confidence interval), cell viability
[2] = tested on: HEK-293 cells expressing EMT; experiment: MTT reduction cell viability assay, EMT-transfected HEK-293 cells; type: cell-based; details: Homo sapiens, HEK293; 48 h exposure; read-out: EC50 (95% confidence interval), cell viability
OCT2 mutant 400C variant = experiment: MTT reduction cell viability assay, HEK-293 cells expressing OCT2 mutant 400C variant; type: cell-based; details: human, 48 h exposure after 12 h incubation with cyclo(his-pro) 10 µmol/l, read-out: EC50 (95% confidence interval), cell viability
OCT2 (wild-type 400R) [3] = target: T1, OCT2 (wild-type 400R) (Homo sapiens, UniProt O15244, S270A); experiment: Specific uptake into OCT2 (wild-type) transfected HEK-293 cells vs empty vector, LC-MS-MS; details: human, pH 7.4
T1 sequence (O15244 1-555 S270A): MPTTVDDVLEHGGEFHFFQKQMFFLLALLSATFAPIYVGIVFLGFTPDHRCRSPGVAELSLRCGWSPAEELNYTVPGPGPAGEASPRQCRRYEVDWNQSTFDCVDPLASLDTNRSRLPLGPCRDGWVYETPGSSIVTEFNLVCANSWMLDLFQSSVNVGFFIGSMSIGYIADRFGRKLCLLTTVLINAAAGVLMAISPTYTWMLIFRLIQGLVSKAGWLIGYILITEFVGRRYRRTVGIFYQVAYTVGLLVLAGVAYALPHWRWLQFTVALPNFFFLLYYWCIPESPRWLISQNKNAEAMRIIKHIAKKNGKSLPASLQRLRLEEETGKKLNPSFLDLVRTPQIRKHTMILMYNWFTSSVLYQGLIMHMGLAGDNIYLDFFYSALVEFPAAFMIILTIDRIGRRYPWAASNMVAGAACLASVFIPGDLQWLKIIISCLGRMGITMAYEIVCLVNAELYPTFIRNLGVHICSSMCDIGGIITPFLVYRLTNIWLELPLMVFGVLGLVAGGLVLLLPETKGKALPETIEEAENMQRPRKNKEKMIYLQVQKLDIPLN

[4] = target: T2, organic cation transporter OCT2 (wild-type 400R) (Homo sapiens, UniProt O15244, S270A); experiment: as above; details: for influx clearance Clin: specific uptake after incubation with 10 µmol/l, mean (s.e.m.), n = 3
T2 sequence (O15244 1-555 S270A): T1 sequence (O15244 1-555 S270A)

[5] = tested on: HEK-293 cells expressing OCT2; experiment: MTT reduction cell viability assay, OCT2 (wild-type 400R) transfected HEK-293 cells; type: cell-based, human; details: cyclo(his-pro) 10 µmol/l, 12 h prior to salsolinol treatment
Method: as §1

[6] = weak bases; cited from earlier work
OCT2 = target: T3, OCT2 (Homo sapiens, UniProt O15244, S270A); experiment: Substrate search: uptake from fetal bovine serum into OCT2-transfected vs control HEK-293 cells, ESI-LC-MS-MS; details: 30 min incubation with 100% fetal bovine serum, OCT2 vs HEK-293 cells without OCT2
T3 sequence (O15244 1-555 S270A): T1 sequence (O15244 1-555 S270A)
Method: Uptake experiments were conducted in OCT2-transfected human embryonic kidney cells (HEK-293) by incubation with fetal bovine serum. Specific OCT2-mediated uptake of a compound from serum was assessed in comparison to HEK-293 cells without OCT2 expression by running positive electrospray ionization tandem mass spectrometry analysis (ESI-LC-MS-MS).
After termination of uptake by washing with ice-cold HEPES-Krebs buffer and protein precipitation with 4 mmol/l perchloric acid or 100% acetonitrile in the case of brain homogenates, lysates were analyzed by LC-MS-MS operating in product scan positive electrospray ionisation mode (ESI) on a TSQ Quantum triple-quadrupole tandem mass spectrometer equipped with a thermostated (5°C) Surveyor autosampler and a thermostated (30°C) Surveyor HPLC system (Thermo Electron). Spray voltage was set at 4500 V, and capillary temperature was kept at 350°C. Nitrogen sheath gas and auxiliary gas pressure were 40 and 4 psi respectively. The collision gas was argon and collision-induced dissociation (CID) took place at 1.5 mTorr and 25 eV. […] 1-Methyl-4-phenyl-pyridinium iodide (MPP^+, 500 ng/ml) was applied as internal standard (IS) and the m/z 170→128 transition was simultaneously recorded by single reaction monitoring (SRM) at 36 eV collision energy. […]

| Structure (SMILES) | EC50 at 48 h (OCT2 (wild-type 400R) [1]) [µM] | EC50 at 48 h (OCT1) [µM] | EC50 [2] [µM] | EC50 at 48 h (OCT2 mutant 400C variant) [µM] | Km at 1 min (OCT2 (wild-type 400R) [3]) [µM] | N-methylation of intracellular salsolinol (of salsolinol concentration) ([4]; after 60 min of incubation, transfected HEK-293 cells) [%] | influx clearance Clin [4] | effect of pretreatment on salsolinol-induced degeneration [5] | pKS [6] | dependence of specific uptake on pH ([4]; 10 µmol/l, 3 min incubation) | dependence of specific uptake on extracellular sodium concentration ([4]; 10 µmol/l, 3 min incubation, sodium chloride isoosmotically replaced with lithium chloride) | specific uptake from serum, fold above the control (OCT2) [fold] |
| --- | --- | --- | --- | --- | --- | --- | --- | --- | --- | --- | --- | --- |
| CC1NCCc2cc(O)c(O)cc21 (stereo not shown) [salsolinol] | 192 | 627 | 998 | 406 | 130 | ≤ 2.5 | 18.5 (2.6) µl/mg/min |  |  |  |  |  |
| O=C1NC(Cc2c[nH]cn2)C(=O)N2CCCC12 (stereo not shown) [cyclo(his-pro), histidyl-proline diketopiperazine] |  |  |  |  |  |  | 25.0 (4.2) µl/mg/min | prevented degeneration | 6.5–7.5 | pH influenced specific uptake | independent of extracellular sodium concentration | > 2 |
